Data: DBAASP
In brackets after ≈: the same amount, converted by molar mass.

How the values were obtained:
Assay in all cases: ≥ marks a high value that may be exact or a test limit, other limits are often not marked, values filed in µg/mL are converted to µM
Vibrio cholerae CUN 09 = test system: Vibrio cholerae CUN 09
[1] = test system: Staphylococcus aureus ATCC 43300
[2] = test system: Escherichia coli ATCC 25922
Escherichia coli = test system: Escherichia coli
Pseudomonas aeruginosa = test system: Pseudomonas aeruginosa
[3] = test system: Candida albicans ATCC 90029
[4] = test system: Staphylococcus aureus ATCC 29213
Staphylococcus aureus = test system: Staphylococcus aureus
Candida albicans = test system: Candida albicans
[5] = test system: Candida albicans NCTC 1467
[6] = test system: Pseudomonas aeruginosa ATCC 27853
[7] = test system: Escherichia coli NCTC 10418
[8] = test system: Staphylococcus aureus NCTC 10788
[9] = test system: Staphylococcus aureus ATCC 12493
[10] = test system: Enterococcus faecalis NCTC 12697
[11] = test system: Lactobacillus delbrueckii subsp. bulgaricus CIDCA 331
[12] = test system: Lactobacillus delbrueckii subsp. lactis CIDCA 133
[13] = test system: Listeria monocytogenes NCTC 18890
Listeria monocytogenes = test system: Listeria monocytogenes
[14] = test system: Listeria monocytogenes ATCC 7644
[15] = test system: Listeria monocytogenes ATCC 19115
[16] = test system: Listeria monocytogenes ATCC 19114
[17] = test system: Candida albicans ATCC 2048
[18] = test system: Candida glabrata ATCC 90525
Candida krusei ATCC 6258 = test system: Candida krusei ATCC 6258
[19] = test system: Candida parapsilosis ATCC 20224
[20] = test system: Candida tropicalis ATCC 20240
[21] = test system: Staphylococcus aureus ATCC 25923
[22] = test system: Pseudomonas aeruginosa ATCC 9027
[23] = test system: Listeria monocytogenes EGD
[24] = test system: Escherichia coli ATCC 43827
[25] = test system: Acinetobacter baumannii ATCC BAA-1605
[26] = test system: Staphylococcus aureus ATCC 33591

In the case of CC(C)C[C@H](NC(=O)[C@H](CCCCN)NC(=O)CNC(=O)[C@H](CCCCN)NC(=O)[C@H](Cc1ccccc1)NC(=O)[C@H](CCCCN)NC(=O)[C@H](Cc1c[nH]c2ccccc12)NC(=O)[C@H](CCCN=C(N)N)NC(=O)[C@H](Cc1ccccc1)NC(=O)[C@H](CCCN=C(N)N)NC(=O)[C@H](CCCN=C(N)N)NC(=O)[C@H](Cc1ccc(O)cc1)NC(=O)[C@H](CCCCN)NC(=O)[C@H](CCCCN)NC(=O)[C@H](CS)NC(=O)CN)C(=O)N[C@@H](Cc1c[nH]c2ccccc12)C(=O)N[C@@H](CC(C)C)C(=O)N[C@@H](Cc1c[nH]c2ccccc12)C(=O)NCC(N)=O [GCKKYRRFRWKFKGKLWLWG], the MIC (Vibrio cholerae CUN 09) is reported as 12.1 µM (≈ 32 µg/mL) and the MIC [1] is reported as 6.05 µM (≈ 16 µg/mL).
Work on CC(C)C[C@H](NC(=O)[C@H](CO)NC(=O)[C@H](Cc1cnc[nH]1)NC(=O)[C@H](CO)NC(=O)[C@H](CC(C)C)NC(=O)[C@H](CC(C)C)NC(=O)[C@@H](N)CCCCN)C(=O)N[C@@H](CC(C)C)C(=O)N[C@H](C(=O)N[C@H](C(=O)N[C@@H](CC(C)C)C(=O)N[C@@H](C)C(=O)O)[C@@H](C)O)C(C)C [KLLSHSLLVTLA] yielded an MIC [2] of 4.83 µM (≈ 6.25 µg/mL), an MIC (Escherichia coli) of 9.66 µM (≈ 12.5 µg/mL) and an MIC (Pseudomonas aeruginosa) of 4.83 µM (≈ 6.25 µg/mL). The MIC [3] was at least 154 µM, the MIC [4] was 4.83 µM (≈ 6.25 µg/mL) and the MIC (Staphylococcus aureus) was 4.83 µM (≈ 6.25 µg/mL). For the same compound, the MIC (Candida albicans) was over 154 µM.
CC[C@H](C)[C@H](NC(=O)CN)C(=O)N[C@@H](CCSC)C(=O)N[C@@H](CC(=O)O)C(=O)N[C@H](C(=O)N[C@H](C(=O)N[C@@H](CCCCN)C(=O)N[C@@H](CC(N)=O)C(=O)N[C@@H](C)C(=O)N[C@@H](C)C(=O)N[C@@H](CCCCN)C(=O)N[C@@H](CC(N)=O)C(=O)N[C@@H](CC(C)C)C(=O)N[C@@H](C)C(=O)NCC(=O)N[C@@H](CCC(N)=O)C(=O)N[C@@H](CC(C)C)C(=O)N[C@@H](CC(C)C)C(=O)N[C@@H](CC(=O)O)C(=O)N[C@@H](CCCCN)C(=O)N[C@@H](CC(C)C)C(=O)N[C@@H](CCCCN)C(=O)N[C@H]1CSSC[C@@H](C(=O)O)NC(=O)[C@H](C)NC(=O)[C@H]([C@@H](C)O)NC(=O)[C@H]([C@@H](C)CC)NC(=O)[C@H](CCCCN)NC1=O)C(C)C)[C@@H](C)O [GIMDTVKNAAKNLAGQLLDKLKCKITAC] gave an MIC [5] of at least 256 µM, an MIC [6] of over 512 µM and an MIC [7] of at least 32 µM. It also gave an MIC [8] of at least 32 µM, an MIC [9] of at least 256 µM and an MIC [10] of at least 128 µM.
CC[C@H](C)[C@H](NC(=O)[C@H](CC(=O)O)NC(=O)[C@H](Cc1ccccc1)NC(=O)[C@H](CC(C)C)NC(=O)CN)C(=O)N[C@@H](CCCCN)C(=O)N[C@@H](CCCCN)C(=O)N[C@H](C(=O)N[C@@H](C)C(=O)N[C@@H](CO)C(=O)N[C@H](C(=O)N[C@H](C(=O)NCC(=O)NCC(=O)N[C@@H](CC(C)C)C(N)=O)[C@@H](C)CC)C(C)C)C(C)C [GLFDIKKVASVIGGL] showed an MIC [11] of 25 µM (≈ 37.9 µg/mL) and an MIC [12] of at least 50 µM.
Compound CSCC[C@H](N)C(=O)N[C@@H](CCCN=C(N)N)C(=O)NCC(=O)N[C@@H](CO)C(=O)N[C@@H](Cc1cnc[nH]1)C(=O)N[C@@H](Cc1cnc[nH]1)C(=O)N[C@@H](Cc1cnc[nH]1)C(=O)N[C@@H](Cc1cnc[nH]1)C(=O)N[C@@H](Cc1cnc[nH]1)C(=O)N[C@@H](Cc1cnc[nH]1)C(=O)NCC(=O)N[C@@H](CO)C(=O)N[C@@H](CO)C(=O)NCC(=O)N[C@@H](CCC(=O)O)C(=O)N[C@@H](CC(N)=O)C(=O)N[C@@H](CC(C)C)C(=O)N[C@@H](Cc1ccc(O)cc1)C(=O)N[C@@H](Cc1ccccc1)C(=O)N[C@@H](CCC(N)=O)C(=O)N[C@@H](CO)C(=O)N[C@@H](CC(C)C)C(=O)O [MRGSHHHHHHGSSGENLYFQSL] has an MIC [13] of at least 1960 µM, an MIC (Listeria monocytogenes) of at least 1960 µM and an MIC [14] of at least 1960 µM. It also gave an MIC [15] of at least 1960 µM and an MIC [16] of at least 1960 µM.
For CC[C@H](C)[C@H](NC(=O)[C@H](CO)NC(=O)[C@H](CC(C)C)NC(=O)[C@@H](NC(=O)[C@H](CCCN=C(N)N)NC(=O)[C@@H](N)CCC(=O)O)[C@@H](C)CC)C(=O)N[C@@H](CC(C)C)C(=O)N[C@@H](CCCN=C(N)N)C(=O)N[C@@H](Cc1cnc[nH]1)C(=O)N[C@@H](CCC(N)=O)C(=O)N[C@@H](CC(N)=O)C(=O)N[C@@H](CC(C)C)C(=O)N[C@@H](CC(C)C)C(=O)N[C@@H](CCCCN)C(=O)N[C@@H](CCC(=O)O)C(=O)O [ERILSILRHQNLLKE], the MIC [17] was at least 130 µM, the MIC [18] was at least 110 µM and the MIC (Candida krusei ATCC 6258) was at least 130 µM. For the same compound, the MIC [19] was at least 130 µM and the MIC [20] was at least 73 µM.
CC[C@H](C)[C@H](NC(=O)[C@H](Cc1ccccc1)NC(=O)[C@H](CCCCN)NC(=O)[C@H](CC(N)=O)NC(=O)[C@H](CC(C)C)NC(=O)[C@H](CCC(N)=O)NC(=O)CN)C(=O)N[C@@H](CCCCN)C(=O)N[C@@H](CCCCN)C(=O)N[C@@H](C)C(=O)N[C@@H](CCC(N)=O)C(=O)N[C@@H](CCCN=C(N)N)C(=O)N[C@@H](CCCCN)C(=O)N[C@@H](Cc1ccccc1)C(=O)N[C@@H](Cc1cnc[nH]1)C(=O)N[C@@H](CCC(=O)O)C(=O)N[C@@H](CCCCN)C(=O)N[C@@H](Cc1ccccc1)C(=O)N[C@@H](C)C(=O)N[C@@H](CCCCN)C(N)=O [GQLNKFIKKAQRKFHEKFAK] showed an MIC [21] of 128 µM (≈ 313 µg/mL), an MIC [22] of 209 µM (≈ 512 µg/mL) and an MIC [23] of at least 128 µM. For the same compound, the MIC [6] was 128 µM (≈ 313 µg/mL), the MIC [2] was 128 µM (≈ 313 µg/mL) and the MIC [24] was at least 209 µM. The MIC [25] was at least 105 µM and the MIC [26] was at least 209 µM.
